From ChEMBL document CHEMBL5465560, “Selectivity Literature for EUbOPEN Chemogenomic Library” (2024) come the findings set out here.

Assay [1] addresses Dual specificity tyrosine-phosphorylation-regulated kinase 1A (Homo sapiens, UniProt Q13627). Description: Selectivity interaction (KinomeScan (DiscoverX)) EUB0000229b DYRK1A. The settings on record: at 10 µM.
For assay [2], the target named is Death-associated protein kinase 1 (Homo sapiens, UniProt P53355). Description: Selectivity interaction (KinomeScan (DiscoverX)) EUB0000229b DAPK1. The note with it: at 10 µM.
Death-associated protein kinase 1, sequence (P53355 whole entry, looked up): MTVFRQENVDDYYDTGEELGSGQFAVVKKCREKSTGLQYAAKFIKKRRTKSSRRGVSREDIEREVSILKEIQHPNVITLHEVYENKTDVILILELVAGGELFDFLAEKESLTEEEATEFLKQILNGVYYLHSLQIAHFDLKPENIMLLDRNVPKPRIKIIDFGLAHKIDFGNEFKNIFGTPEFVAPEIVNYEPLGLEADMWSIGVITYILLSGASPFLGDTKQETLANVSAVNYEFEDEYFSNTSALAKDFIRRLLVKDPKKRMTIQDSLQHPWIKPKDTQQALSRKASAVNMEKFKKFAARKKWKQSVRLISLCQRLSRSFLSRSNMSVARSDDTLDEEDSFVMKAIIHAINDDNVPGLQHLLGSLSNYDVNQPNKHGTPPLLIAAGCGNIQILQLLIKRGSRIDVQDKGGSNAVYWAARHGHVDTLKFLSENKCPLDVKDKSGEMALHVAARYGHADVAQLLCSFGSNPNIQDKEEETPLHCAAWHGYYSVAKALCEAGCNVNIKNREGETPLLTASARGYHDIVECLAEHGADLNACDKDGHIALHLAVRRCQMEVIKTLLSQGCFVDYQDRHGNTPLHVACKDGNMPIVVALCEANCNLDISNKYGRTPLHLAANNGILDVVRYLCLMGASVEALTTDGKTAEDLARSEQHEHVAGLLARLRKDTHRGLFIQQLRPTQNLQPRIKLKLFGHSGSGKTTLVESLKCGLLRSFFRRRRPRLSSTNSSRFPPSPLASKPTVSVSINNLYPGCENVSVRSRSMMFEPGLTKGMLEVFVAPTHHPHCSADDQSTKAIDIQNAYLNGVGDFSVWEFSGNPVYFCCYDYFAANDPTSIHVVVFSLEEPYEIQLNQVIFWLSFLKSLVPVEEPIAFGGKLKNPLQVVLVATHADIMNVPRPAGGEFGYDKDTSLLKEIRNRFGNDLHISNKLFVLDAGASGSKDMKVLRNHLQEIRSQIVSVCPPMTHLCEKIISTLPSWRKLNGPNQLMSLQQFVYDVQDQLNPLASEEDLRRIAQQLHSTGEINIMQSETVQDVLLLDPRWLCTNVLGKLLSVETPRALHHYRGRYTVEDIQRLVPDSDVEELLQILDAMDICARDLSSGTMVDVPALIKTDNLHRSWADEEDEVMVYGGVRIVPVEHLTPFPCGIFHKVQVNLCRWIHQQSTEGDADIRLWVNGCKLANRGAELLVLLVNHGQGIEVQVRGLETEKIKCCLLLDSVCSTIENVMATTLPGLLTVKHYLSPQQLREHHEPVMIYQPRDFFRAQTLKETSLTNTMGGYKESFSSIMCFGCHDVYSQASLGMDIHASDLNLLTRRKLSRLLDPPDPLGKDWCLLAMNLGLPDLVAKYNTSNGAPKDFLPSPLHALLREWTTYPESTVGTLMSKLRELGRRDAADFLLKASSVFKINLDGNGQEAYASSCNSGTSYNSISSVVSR
Assay [3] addresses T1, Tyrosine-protein kinase receptor TYRO3 (Homo sapiens) (UniProt Q06418).
T1 sequence (whole entry): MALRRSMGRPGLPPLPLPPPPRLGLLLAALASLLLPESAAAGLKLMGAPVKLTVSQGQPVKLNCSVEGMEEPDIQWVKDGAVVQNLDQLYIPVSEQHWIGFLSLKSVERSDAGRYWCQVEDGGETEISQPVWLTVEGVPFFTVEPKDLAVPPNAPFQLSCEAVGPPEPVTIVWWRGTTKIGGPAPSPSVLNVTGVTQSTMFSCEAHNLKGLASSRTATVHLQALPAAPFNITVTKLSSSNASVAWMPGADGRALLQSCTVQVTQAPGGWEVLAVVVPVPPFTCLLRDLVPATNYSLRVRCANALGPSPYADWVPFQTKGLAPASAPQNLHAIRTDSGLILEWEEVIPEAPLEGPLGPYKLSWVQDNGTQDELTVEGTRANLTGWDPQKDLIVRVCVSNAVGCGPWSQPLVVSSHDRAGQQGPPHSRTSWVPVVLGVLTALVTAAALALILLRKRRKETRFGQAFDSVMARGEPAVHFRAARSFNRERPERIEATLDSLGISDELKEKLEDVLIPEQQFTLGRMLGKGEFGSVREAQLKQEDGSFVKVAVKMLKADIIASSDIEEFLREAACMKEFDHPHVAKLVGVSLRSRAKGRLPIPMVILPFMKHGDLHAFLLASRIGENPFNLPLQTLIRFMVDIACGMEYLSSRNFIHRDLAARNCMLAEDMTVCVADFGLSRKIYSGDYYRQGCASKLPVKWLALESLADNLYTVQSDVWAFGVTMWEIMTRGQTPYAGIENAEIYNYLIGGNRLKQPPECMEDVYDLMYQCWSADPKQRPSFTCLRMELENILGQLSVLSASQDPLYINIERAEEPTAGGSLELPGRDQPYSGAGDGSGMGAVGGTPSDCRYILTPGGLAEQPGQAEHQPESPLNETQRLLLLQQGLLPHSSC
Description: Selectivity interaction (KinomeScan (DiscoverX)) EUB0000655a TYRO3. The note with it: at 10 µM.

Assay [4] concerns the target Casein kinase II subunit alpha' (Homo sapiens) (UniProt P19784). Description: Selectivity interaction (ProQinase) EUB0000171b CSNK2A2.
In assay [5] the target is Tyrosine-protein kinase Fgr (Homo sapiens) (UniProt P09769). Description: Selectivity interaction (ProQinase) EUB0000171b FGR.
Tyrosine-protein kinase Fgr (Homo sapiens), sequence (P09769 2-529 limits assumed): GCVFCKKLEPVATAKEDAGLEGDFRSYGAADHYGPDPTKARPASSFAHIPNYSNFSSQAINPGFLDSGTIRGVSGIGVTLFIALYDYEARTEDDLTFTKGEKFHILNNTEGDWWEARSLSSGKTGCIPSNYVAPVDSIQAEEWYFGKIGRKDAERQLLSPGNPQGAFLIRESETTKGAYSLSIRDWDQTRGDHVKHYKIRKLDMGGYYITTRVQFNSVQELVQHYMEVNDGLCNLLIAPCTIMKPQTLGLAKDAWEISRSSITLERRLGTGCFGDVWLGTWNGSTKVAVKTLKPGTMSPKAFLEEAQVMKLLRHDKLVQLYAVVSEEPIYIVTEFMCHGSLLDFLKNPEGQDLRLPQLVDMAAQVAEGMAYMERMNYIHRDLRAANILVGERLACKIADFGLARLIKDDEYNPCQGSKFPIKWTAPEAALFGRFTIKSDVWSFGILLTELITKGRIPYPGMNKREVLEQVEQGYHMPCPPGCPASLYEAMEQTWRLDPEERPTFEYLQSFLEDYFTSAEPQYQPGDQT
Assay [6] addresses T2, Prostaglandin G/H synthase 2 (Homo sapiens) (UniProt P35354).
T2 sequence (whole entry): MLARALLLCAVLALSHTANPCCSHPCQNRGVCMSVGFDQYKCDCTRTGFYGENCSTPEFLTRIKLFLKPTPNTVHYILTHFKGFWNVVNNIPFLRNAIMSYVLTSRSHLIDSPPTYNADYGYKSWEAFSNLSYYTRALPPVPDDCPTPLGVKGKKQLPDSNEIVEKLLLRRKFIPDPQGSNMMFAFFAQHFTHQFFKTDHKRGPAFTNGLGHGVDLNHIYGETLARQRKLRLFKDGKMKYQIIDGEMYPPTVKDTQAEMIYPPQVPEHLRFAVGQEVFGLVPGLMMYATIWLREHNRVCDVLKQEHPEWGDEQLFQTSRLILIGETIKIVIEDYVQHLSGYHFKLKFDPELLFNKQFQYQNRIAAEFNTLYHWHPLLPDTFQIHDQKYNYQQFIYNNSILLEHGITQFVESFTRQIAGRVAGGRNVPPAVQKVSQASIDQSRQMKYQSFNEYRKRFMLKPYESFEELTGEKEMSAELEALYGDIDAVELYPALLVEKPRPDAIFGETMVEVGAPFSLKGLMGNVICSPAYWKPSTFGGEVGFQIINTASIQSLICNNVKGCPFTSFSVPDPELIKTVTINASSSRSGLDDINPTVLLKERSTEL
Description: Selectivity interaction (Panel of kinases, GPCRs, ion channels and transporters (enzymatic assay)) EUB0000223bCl PTGS2.

The target of assay [7] is T3, Serine/threonine-protein kinase MAK (Homo sapiens) (UniProt P20794).
T3 sequence (whole entry): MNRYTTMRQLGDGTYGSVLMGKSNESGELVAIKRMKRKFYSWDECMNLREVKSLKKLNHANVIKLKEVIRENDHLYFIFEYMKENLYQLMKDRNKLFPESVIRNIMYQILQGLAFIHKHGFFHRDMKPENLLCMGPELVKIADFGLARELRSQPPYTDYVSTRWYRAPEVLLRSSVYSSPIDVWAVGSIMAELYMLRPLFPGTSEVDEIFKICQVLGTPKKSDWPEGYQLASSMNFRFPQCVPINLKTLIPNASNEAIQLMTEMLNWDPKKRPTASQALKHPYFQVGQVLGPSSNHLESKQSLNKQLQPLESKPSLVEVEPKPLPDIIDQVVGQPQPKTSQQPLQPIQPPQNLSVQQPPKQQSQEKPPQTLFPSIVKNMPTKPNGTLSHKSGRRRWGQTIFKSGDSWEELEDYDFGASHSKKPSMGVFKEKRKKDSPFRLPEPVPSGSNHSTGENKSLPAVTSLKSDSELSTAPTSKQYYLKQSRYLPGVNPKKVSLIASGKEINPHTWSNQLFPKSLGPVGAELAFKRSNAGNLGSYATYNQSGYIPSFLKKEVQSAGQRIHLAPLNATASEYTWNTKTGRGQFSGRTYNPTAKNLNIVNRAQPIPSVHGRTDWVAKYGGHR
Description: Selectivity interaction (KinomeScan (DiscoverX)) EUB0000618a MAK. The settings on record: at 10 µM.

In assay [8] the target is T4, Phosphorylase b kinase gamma catalytic chain, liver/testis isoform (Homo sapiens) (UniProt P15735).
T4 sequence (whole entry): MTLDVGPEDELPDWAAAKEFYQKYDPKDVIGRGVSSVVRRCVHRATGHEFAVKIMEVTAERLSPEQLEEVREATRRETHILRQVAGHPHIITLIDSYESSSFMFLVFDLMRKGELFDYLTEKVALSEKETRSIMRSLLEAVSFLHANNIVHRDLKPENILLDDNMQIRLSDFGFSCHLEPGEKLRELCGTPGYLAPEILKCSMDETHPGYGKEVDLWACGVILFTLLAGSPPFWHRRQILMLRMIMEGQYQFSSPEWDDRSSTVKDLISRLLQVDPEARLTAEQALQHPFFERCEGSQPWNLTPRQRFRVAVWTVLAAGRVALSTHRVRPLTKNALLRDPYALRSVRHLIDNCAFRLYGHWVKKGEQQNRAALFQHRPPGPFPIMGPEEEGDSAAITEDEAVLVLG
Description: Selectivity interaction (Upstate Kinase Profiler service (Millipore)) EUB0000056c PHKG2. The note with it: at 1 µM.

Casein kinase II subunit alpha' (Homo sapiens), sequence (P19784 whole entry, looked up): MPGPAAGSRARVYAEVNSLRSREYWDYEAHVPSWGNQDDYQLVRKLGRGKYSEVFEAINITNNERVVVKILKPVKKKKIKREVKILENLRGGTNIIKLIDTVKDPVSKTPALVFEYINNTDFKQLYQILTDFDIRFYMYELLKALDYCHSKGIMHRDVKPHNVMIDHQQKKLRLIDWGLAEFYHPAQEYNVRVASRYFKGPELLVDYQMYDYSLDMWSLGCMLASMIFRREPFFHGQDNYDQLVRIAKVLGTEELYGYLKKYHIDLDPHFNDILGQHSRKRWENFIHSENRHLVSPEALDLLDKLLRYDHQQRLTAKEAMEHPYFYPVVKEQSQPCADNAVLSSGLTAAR

For `COc1cc(N(C)c2ccnc3ccc(C(F)(F)F)cc23)cc(OC)c1OC`, the % binding stood at 65% in assay [1] and 94% in assay [2].

For the compound `CN(C)CCOc1ccc(-c2nc(-c3ccncc3)c(-c3ccc4c(c3)CC/C4=N\O)[nH]2)cc1`, the % of control in assay [3] worked out at 100%.

As to `C=CC(=O)Nc1cccc(C(=O)Nc2ccc(Nc3cc(-c4[nH]c(SC)nc4C)ccn3)cc2)c1`, the % of control worked out at 80% in assay [4] (at 1 µM), 52% in assay [4] (at 5 µM), 87% in assay [5] (at 1 µM) and 79% in assay [5] (at 5 µM).

With `COc1cc(C(=O)N2CC[C@@H](O)[C@@H](N)C2)cc2nc(-c3cc4ccccc4n3CC3CC3)n(C)c12`, the pXC50 in assay [6] was less than 4 M.

For `O[C@H]1CC[C@H](Nc2ncc3nc(Nc4c(F)cc(F)cc4F)n([C@H]4CCOC4)c3n2)CC1`, the % of control in assay [7] is 97%.

`Cc1ccc(-c2ccc3c(ccc4sc5c(c43)NC[C@@H](C)NC5=O)n2)cn1`: the % of inhibition in assay [8] turned out to be 58%.
